Tested on: gut microbiota
Assay: Gut microbiome analysis (16S rRNA sequencing of fecal samples) in STAM model of NASH
Format: in vivo, C57BL/6J mice
Excerpt: The study is reported in accordance with Animal Research: Reporting of In Vivo Experiments (ARRIVE) guidelines. C57BL/6J mice were obtained from Japan SLC, Inc. (Japan). All animals used in this study were cared for under the following guidelines: Act on Welfare and Management of Animals (Ministry of the Environment, Japan, Act No. 105 of Oct. 1, 1973), standards relating to the care and management of laboratory animals and relief of pain (Notice No. 88 of the Ministry of the Environment, Japan, Apr. 28, 2006) and the guidelines for proper conduct of animal experiments (Science Council of Japan, Jun. 1, 2006). Protocol approvals were obtained from SMC Laboratories, Japan's IACUC (Study reference no: […] Mice were maintained in a specific pathogen-free (SPF) facility under controlled conditions of temperature (23±3° C.), humidity (50±20%), lighting (12-hour artificial light and dark cycles; light from 8:00 to 20:00) and air exchange. The STAM model of NASH was induced as previously described [D10]. Mice were given a single subcutaneous injection of 200 μg streptozotocin (STZ, Sigma-Aldrich, USA) solution 2 days after birth and fed with a high-fat diet (HFD, 57 kcal % fat, Cat #HFD32, CLEA Japan, Inc., Japan) from 4-9 weeks of age. All mice develop liver steatosis and diabetes and at […] mice had established steatohepatitis, histologically. Studygroups: There were five study groups, described below. Eight mice were included in each study group. Eight NASH mice were orally administered vehicle supplemented with AFO-202 Beta Glucan at a dose of 1 mg/kg in a volume of 5 mL/kg once daily from 6 to 9 weeks of age. Eight NASH mice were orally administered vehicle supplemented with Telmisartan at a dose of 10 mg/kg once daily from 6 to 9 weeks of age. Frequency: Fecal samples were collected at the 6 weeks of age (before administration) and 9 weeks of age (before sacrifice). Procedure: At 6 weeks of age, fecal samples were collected from each mouse by clean catch method. […] A sterile petri dish was placed on the bench. Gently massage the abdomen, position the bottom of mouse over a fresh petri dish, and collect 1-2 fecal pellets. At sacrifice, fecal samples were aseptically collected from cecum. The tubes with feces were placed on ice immediately. These tubes were snap frozen in liquid nitrogen and stored at -80° C. for shipping. In this analysis, the 16S rRNA sequence data acquired by the next-generation sequencer from the fecal […] was used to perform community analysis using the QIIME2 program for microbial community analysis. The raw read data in FASTQ format output from the next-generation sequencer was trimmed to remove adapter sequences and low QV regions that may be included in the data. Cutadapt was used to remove adapter sequences from DNA sequencing reads. Trimmomatic was used as read trimming tool for Illumina NGS data. The adapter sequence was trimmed using the adapter trimming program “cutadapt” if the Trimming of the region at the end of the read sequence overlapped the corresponding sequence by at least one base (mismatch tolerance: 20%). When reads containing N were present in at least one of Read1 and Read2, both Read1 and Read2 were removed. Trimming of low QV regions was performed on the read data after processing using the QV trimming program “Trimmomatic” under the following conditions. The window of 20 bases is slid from the 5' side, and the area where the average QV is less than 20 is trimmed. After trimming, only the reads with more than 50 bases remaining in both Read1 and Read2 were taken as output. The microbial community analysis based on 16S rRNA sequence was performed on the sequence data trimmed in the previous section using the microbial community analysis program “QIIME2”. The annotation program “sklearn” included in QIIME2 is used to annotate the ASV (OTU) sequences. […]

With `CCCc1nc2c(C)cc(-c3nc4ccccc4n3C)cc2n1Cc1ccc(-c2ccccc2C(=O)O)cc1` [Telmisartan] the “Abundance Lachnospiraceae/[Ruminococcus]/gnavus” value (post, line r79) was 260, the “Abundance Bacteroidaceae/Bacteroides/—” value (post, line r80) was 1596 and the “Abundance S24-7/—/—” value (post, line r81) was 125. The “Abundance Lachnospiraceae/[Ruminococcus]/gnavus” value (post, line r83) was 281, the “Abundance Ruminococcaceae/Oscillospira/—” value (post, line r84) was 393 and the “Abundance Alcaligenaceae/Sutterella/—” value (post, line r86) was 63. For the same compound, the “Abundance S24-7/—/—” value (post, line r87) was 54, the “Abundance Other/Other/Other” value (post, line r90) was 0 and the “Abundance Lachnospiraceae/[Ruminococcus]/gnavus” value (post, line r91) was 325. For the same compound, the “Abundance S24-7/—/—” value (post, line r92) was 153, the “Abundance Rikenellaceae/—/—” value (post, line r93) was 134 and the “Abundance Lachnospiraceae/[Ruminococcus]/gnavus” value (post, line r94) was 30. For the same compound, the “Abundance Lachnospiraceae/—/—” value (post, line r95) was 359, the “Abundance Clostridiaceae/Other/Other” value (post, line r96) was 39 and the “Abundance Lachnospiraceae/—/—” value (post, line r97) was 239. The “Abundance Ruminococcaceae/Oscillospira/—” value (post, line r98) was 138, the “Abundance Enterococcaceae/Enterococcus/—” value (post, line r99) was 0 and the “Abundance Rikenellaceae/—/—” value (post, line r100) was 96. For the same compound, the “Abundance S24-7/—/—” value (post, line r101) was 79, the “Abundance Lactobacillaceae/Lactobacillus/reuteri” value (post, line r102) was 0 and the “Abundance Bacteroidaceae/Bacteroides/acidifaciens” value (post, line r103) was 127. For the same compound, the “Abundance Ruminococcaceae/Oscillospira/—” value (post, line r104) was 451, the “Abundance Enterobacteriaceae/Escherichia/coli” value (post, line r105) was 0 and the “Abundance Ruminococcaceae/Oscillospira/—” value (post, line r106) was 280. For the same compound, the “Abundance —/—/—” value (post, line r107) was 254, the “Abundance S24-7/—/—” value (post, line r108) was 92 and the “Abundance —/—/—” value (post, line r109) was 0. For the same compound, the “Abundance Other/Other/Other” value (post, line r110) was 251, the “Abundance Lachnospiraceae/—/—” value (post, line r111) was 163 and the “Abundance Lachnospiraceae/[Ruminococcus]/gnavus” value (post, line r112) was 63. The “Abundance Lachnospiraceae/—/—” value (post, line r113) was 117, the “Abundance Enterobacteriaceae/Klebsiella/Other” value (post, line r114) was 33 and the “Abundance Lachnospiraceae/—/—” value (post, line r115) was 187. The “Abundance —/—/—” value (post, line r117) was 261, the “Abundance Lactobacillaceae/Lactobacillus/—” value (post, line r118) was 0 and the “Abundance Other/Other/Other” value (post, line r119) was 248. The “Abundance —/—/—” value (post, line r120) was 0, the “Abundance Erysipclotrichaceae/Allobaculum/—” value (post, line r121) was 59 and the “Abundance —/—/—” value (post, line r122) was 84. The “Abundance Lachnospiraceae/—/—” value (post, line r123) was 271, the “Abundance —/—/—” value (post, line r124) was 173 and the “Abundance Other/Other/Other” value (post, line r125) was 269. For the same compound, the “Abundance Lactobacillaceae/Lactobacillus/reuteri” value (post, line r126) was 0, the “Abundance Ruminococcaceae/Oscillospira/—” value (post, line r127) was 273 and the “Abundance Lachnospiraceae/—/—” value (post, line r128) was 139. The “Abundance S24-7/—/—” value (post, line r129) was 125, the “Abundance S24-7/—/—” value (post, line r130) was 111 and the “Abundance Lachnospiraceae/—/—” value (post, line r131) was 119. For the same compound, the “Abundance S24-7/—/—” value (post, line r133) was 74, the “Abundance Lachnospiraceae/—/—” value (post, line r134) was 98 and the “Abundance —/—/—” value (post, line r135) was 376. The “Abundance Coriobacteriaceae/Adlercreutzia/—” value (post, line r136) was 30, the “Abundance —/—/—” value (post, line r137) was 118 and the “Abundance Clostidiaceae/Other/Other” value (post, line r138) was 0. The “Abundance Turicibacteraceae/Turicibacter/—” value (post, line r139) was 0, the “Abundance Ruminococcaceae/Ruminococcus/—” value (post, line r140) was 143 and the “Abundance Ruminococcaceae/Oscillospira/—” value (post, line r141) was 119. The “Abundance Dehalobacteriaceae/Dehalobacterium/—” value (post, line r142) was 268, the “Abundance Staphylococcaceae/Staphylococcus/Other” value (post, line r143) was 34 and the “Abundance Rikenellaceae/—/—” value (post, line r144) was 97. For the same compound, the “Abundance Lachnospiraceae/—/—” value (post, line r145) was 98, the “Abundance —/—/—” value (post, line r146) was 68 and the “Abundance Staphylococcaceae/Staphylococcus/sciuri” value (post, line r147) was 41. The “Abundance —/—/—” value (post, line r148) was 0, the “Abundance Ruminococcaceae/Ruminococcus/—” value (post, line r149) was 124 and the “Abundance Coriobacteriaceae/Adlercreutzia/—” value (post, line r150) was 0. The “Abundance Ruminococcaceae/Oscillospira/—” value (post, line r151) was 120, the “Abundance Lachnospiraceae/Clostridium/Other” value (post, line r152) was 40 and the “Abundance Lachnospiraceae/Coprococcus/—” value (post, line r153) was 85. The “Abundance Desulfovibrionaceae/—/—” value (post, line r154) was 148, the “Abundance —/—/—” value (post, line r155) was 103 and the “Abundance Lachnospiraceae/—/—” value (post, line r156) was 272. For the same compound, the “Abundance Dehalobacteriaceae/Dehalobacterium/—” value (post, line r157) was 239, the “Abundance Coriobacteriaceae/Adlercreutzia/—” value (post, line r158) was 0 and the “Abundance Lachnospiraceae/—/—” value (post, line r159) was 119. For the same compound, the “Abundance Lachnospiraceae/—/—” value (post, line r160) was 14, the “Abundance S24-7/—/—” value (post, line r162) was 51 and the “Abundance Streptococcaceae/Streptococcus/—” value (post, line r163) was 44. For the same compound, the “Abundance Lachnospiraceae/[Ruminococcus]/gnavus” value (post, line r164) was 37, the “Abundance Lachnospiraceae/—/—” value (post, line r165) was 173 and the “Abundance Lachnospiraceae/—/—” value (post, line r166) was 10. The “Abundance Coriobacteriaceae/Adlercreutzia/—” value (post, line r167) was 8, the “Abundance Lachnospiraceae/—/—” value (post, line r168) was 57 and the “Abundance Erysipelotrichaceae/Clostridium/cocleatum” value (post, line r169) was 119. The “Abundance Lachnospiraceae/—/—” value (post, line r171) was 81, the “Abundance Bacteroidaceae/Bacteroides/—” value (post, line r172) was 468 and the “Abundance Ruminococcaceae/Oscillospira/—” value (post, line r173) was 53. The “Abundance Ruminococcaceae/—/—” value (post, line r174) was 72, the “Abundance Lachnospiraceae/Other/Other” value (post, line r175) was 90 and the “Abundance Lachnospiraceae/Dorea/—” value (post, line r176) was 154. For the same compound, the “Abundance Lachnospiraceae/—/—” value (post, line r177) was 94, the “Abundance S24-7/—/—” value (post, line r178) was 0 and the “Abundance Lachnospiraceae/—/—” value (post, line r179) was 138. For the same compound, the “Abundance Lactobacillaceae/Lactobaccilus/Other” value (post, line r180) was 0, the “Abundance —/—/—” value (post, line r181) was 48 and the “Abundance Ruminococcaceae/Oscillospira/—” value (post, line r182) was 101. For the same compound, the “Abundance S24-7/—/—” value (post, line r184) was 71, the “Abundance [Mogibacteriaceae]/—/—” value (post, line r185) was 28 and the “Abundance Peptococcaceae/—/—” value (post, line r186) was 42. The “Abundance —/—/—” value (post, line r187) was 40, the “Abundance —/—/—” value (post, line r188) was 213 and the “Abundance S24-7/—/—” value (post, line r189) was 19. For the same compound, the “Abundance: Ruminococcaceae, Oscillospira, —” value (pre (baseline), line r191) was 97 and the “Abundance: Lachnospiraceae, [Ruminococcus], gnavus” value (pre (baseline), line r192) was 33.

— patent US20240374631A1, “A COMPOSITION FOR IMPROVING GUT MICROBIOTA, BEHAVIOURAL PATTERN, ALPHA-SYNUCLEIN LEVELS, SLEEP PATTERN AND/OR SERUM MELATONIN” (GN Corporation Co Ltd, priority 2021, published 2024)
